These results are taken from patent US8598374B2, “GPR120 receptor agonists and uses thereof” (Metabolex, Inc, priority 2008, dated 2013).

One experiment concerns the target T1, human GPR120 (Homo sapiens, UniProt Q5NUL3).
T1 construct: Flag (DYKDDDDK) (N); host or cells: HEK293 cells co-expressing Gqi5
T1 sequence (Q5NUL3 1-361): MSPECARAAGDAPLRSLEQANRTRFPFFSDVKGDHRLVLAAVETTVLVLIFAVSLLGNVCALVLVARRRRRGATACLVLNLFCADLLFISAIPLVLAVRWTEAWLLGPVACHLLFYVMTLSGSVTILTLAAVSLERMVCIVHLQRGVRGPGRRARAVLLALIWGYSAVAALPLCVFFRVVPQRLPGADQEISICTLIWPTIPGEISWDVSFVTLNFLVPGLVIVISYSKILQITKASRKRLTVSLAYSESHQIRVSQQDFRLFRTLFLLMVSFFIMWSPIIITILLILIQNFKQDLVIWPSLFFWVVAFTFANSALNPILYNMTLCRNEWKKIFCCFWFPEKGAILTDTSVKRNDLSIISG
The experiment can be described thus: Intracellular Ca2+ assay (FLIPR Calcium 4, Flexstation) in human GPR120 stable cell line. The format is cell-based. The note with it: % activity at 2.5 μM compared to the maximal activity of the compound of Example 25 at 2.5 μM; HEK293 cells co-expressing Gqi5. The essentials:
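HEK293 cells co-expressing Gqi5 and stably expressing Flag-tagged human GPR120 were seeded at 70,000 cells per well in poly-D-lysine coated 96 well plates and loaded with FLIPR Calcium 4 dye for 50 minutes at 37° C. On a Flexstation, compound-induced fluorescence (excitation 485 nm, emission 525) was recorded for 90 seconds. Percent activity was expressed against a reference agonist's maximal activity at 2.5 μM, set as 100%.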
For the compound `CC1(C)Cc2cc(Cl)cc(COc3ccc(CCC(=O)O)c(F)c3)c2O1` [Example 53, 3-(4-((5-chloro-2,2-dimethyl-2,3-dihydrobenzofuran-7-yl)methoxy)-2-fluorophenyl)-propanoic acid], the “% Activity (Ex. 25 Reference Compound)” value is recorded as 143.19%.
On the same count and under the same terms, to `CC1(C)Cc2cc(F)cc(COc3ccc4cc(C(=O)O)ccc4c3)c2O1` [Example 114, 6-((5-fluoro-2,2-dimethyl-2,3-dihydrobenzofuran-7-yl)methoxy)-2-naphthoic acid] belongs 123.58%.
Regarding `Cc1cc(OCC(=O)O)ccc1OCc1cc(Cl)cc2c1OC(C)(C)C2` [Example 103, 2-(4-((5-chloro-2,2-dimethyl-2,3-dihydrobenzofuran-7-yl)methoxy)-3-methylphenoxy)acetic acid], the “% Activity (Ex. 25 Reference Compound)” value turned out to be 98.96%.
In the case of `COc1cc(CCC(=O)O)c(Br)cc1OCc1cc(F)cc2c1OC(C)(C)C2` [Example 56, 3-(2-bromo-4-((5-fluoro-2,2-dimethyl-2,3-dihydrobenzofuran-7-yl)methoxy)-5-methoxyphenyl)propanoic acid], the “% Activity (Ex. 25 Reference Compound)” value came out at 108.51%.
For `CC(Cc1ccc(OCc2cc(OC(F)(F)F)cc3c2OC(C)(C)C3)cc1)C(=O)O` (stereo not shown) [Example 124, 3-(4-((2,2-dimethyl-5-(trifluoromethoxy)-2,3-dihydrobenzofuran-7-yl)methoxy)phenyl)-2-methylpropanoic acid], the “% Activity (Ex. 25 Reference Compound)” value came out at 131.64%.
As to `Cc1c(CCC(=O)O)ccc(OCc2cc(F)cc3c2OC(C)(C)C3)c1C` [Example 208, 3-(4-((5-fluoro-2,2-dimethyl-2,3-dihydrobenzofuran-7-yl)methoxy)-2,3-dimethylphenyl)propanoic acid], the “% Activity (Ex. 25 Reference Compound)” value is given as 147.47%.
On to `COc1cc(OCc2cc(Cl)cc3c2OC2(CCCC2)C3)ccc1CCC(=O)O` [Example 194, 3-(4-((5-chloro-3H-spiro[benzofuran-2,1′-cyclopentane]-7-yl)methoxy)-2-methoxyphenyl)propanoic acid], for which the “% Activity (Ex. 25 Reference Compound)” value worked out at 148.21%.
On the same count and under the same terms, as for `CC(C)C(CC(=O)O)c1ccc(OCc2cc(Cl)cc3c2OC(C)(C)C3)cc1` (stereo not shown) [Example 266, 3-(4-((5-chloro-2,2-dimethyl-2,3-dihydrobenzofuran-7-yl)methoxy)phenyl)-4-methylpentanoic acid], the figure is 42.73%.
On to `CC1(C)Cc2cc(F)cc(COc3ccc(CCC(=O)O)c4c3CCCC4)c2O1` [Example 218, 3-(4-((5-fluoro-2,2-dimethyl-2,3-dihydrobenzofuran-7-yl)methoxy)-5,6,7,8-tetrahydronaphthalen-1-yl)propanoic acid], for which the “% Activity (Ex. 25 Reference Compound)” value is 114.48%.
For `CC1(C)Cc2cc(Cl)cc(CNc3ccc(CCC(=O)O)cc3)c2O1` [Example 127], the “% Activity (Ex. 25 Reference Compound)” value was 152.93%.
As to `[2H]C([2H])(C(=O)O)C([2H])([2H])c1ccc(OCc2cc(Cl)cc3c2OC(C)(C)C3)c(F)c1` [Example 241, 3-(4-((5-chloro-2,2-dimethyl-2,3-dihydrobenzofuran-7-yl)methoxy)-3-fluorophenyl)-2,2,3,3-tetradeuteriopropanoic acid], the “% Activity (Ex. 25 Reference Compound)” value is 159.62%.
On the same count and under the same terms, as for `CC1(C)Cc2cc(F)cc(COc3ccc(CCC(=O)O)c(OC(F)(F)F)c3)c2O1` [Example 136, 3-(4-((5-fluoro-2,2-dimethyl-2,3-dihydrobenzofuran-7-yl)methoxy)-2-(trifluoromethoxy)phenyl)propanoic acid], the figure is 140.51%; as for `CC1(C)Cc2c(ccc(F)c2COc2c(F)cc(C3CC3C(=O)O)cc2F)O1` (stereo not shown) [Example 99, 2-(3,5-difluoro-4-((5-fluoro-2,2-dimethyl-2,3-dihydrobenzofuran-4-yl)methoxy)phenyl)cyclopropanecarboxylic acid], 101.53%.
As to `CC1(C)Cc2cc(Cl)cc(COc3ccc4c(c3)CC[C@H]4CC(=O)O)c2O1` [Example 176, (S)-2-(5-((5-chloro-2,2-dimethyl-2,3-dihydrobenzofuran-7-yl)methoxy)-2,3-dihydro-1H-inden-1-yl)acetic acid], the “% Activity (Ex. 25 Reference Compound)” value is 138.42%.
Consider `CC1(C)Cc2cc(F)cc(COc3ccc(CCC(=O)O)c4c3CCC4)c2O1` [Example 63, 3-(7-((5-fluoro-2,2-dimethyl-2,3-dihydrobenzofuran-7-yl)methoxy)-2,3-dihydro-1H-inden-4-yl)propanoic acid], for which the “% Activity (Ex. 25 Reference Compound)” value is 95.03%.
On the same count and under the same terms, to `CC(Cc1ccc(OCc2cc(F)cc3c2OC2(CCCC2)C3)cc1)C(=O)O` (stereo not shown) [Example 162, 3-(4-((5-fluoro-3H-spiro[benzofuran-2,1′-cyclopentane]-7-yl)methoxy)phenyl)-2-methylpropanoic acid] belongs 154.48%.
Take `CC(Cc1ccc(OCc2ccc(F)c3c2CC(C)(C)O3)cc1)C(=O)O` (stereo not shown) [Example 91, 3-(4-((7-fluoro-2,2-dimethyl-2,3-dihydrobenzofuran-4-yl)methoxy)phenyl)-2-methylpropanoic acid]: the “% Activity (Ex. 25 Reference Compound)” value is listed as 121.29%.
As for `CC1(C)Cc2cc(F)cc(COc3c(F)cc(CC4CC4C(=O)O)cc3F)c2O1` (single isomer, unassigned) [Example 184A, 2-(3,5-difluoro-4-((5-fluoro-2,2-dimethyl-2,3-dihydrobenzofuran-7-yl)methoxy)benzyl)cyclopropanecarboxylic acid], the “% Activity (Ex. 25 Reference Compound)” value was found to be 95.58%.
Same read-out and setting: as for `[2H]C([2H])(C(=O)O)C([2H])([2H])c1ccc(OCc2cc(F)cc3c2OC(C)(C)C3)c(F)c1CC` [Example 243, 3-(2-ethyl-3-fluoro-4-((5-fluoro-2,2-dimethyl-2,3-dihydrobenzofuran-7-yl)methoxy)phenyl)-2,2,3,3-tetradeuteriopropanoic acid], the figure is 155.23%; as for `CC(Cc1ccc(OCc2cc(Cl)cc3c2OC(C)(C)C3O)c(F)c1)C(=O)O` (stereo not shown) [Example 80, 3-(4-((5-chloro-3-hydroxy-2,2-dimethyl-2,3-dihydrobenzofuran-7-yl)methoxy)-3-fluorophenyl)-2-methylpropanoic acid], 86.25%; as for `CC1(C)Cc2cc(F)cc(COc3ccc(C4CC4C(=O)O)cc3)c2O1` (single isomer, unassigned) [Example 131B, 2-(4-((5-fluoro-2,2-dimethyl-2,3-dihydrobenzofuran-7-yl)methoxy)phenyl)cyclopropanecarboxylic acid], 105.8%.
In the case of `CC1(C)Cc2cc(F)cc(CCc3ccc(OCC(=O)O)cc3)c2O1` [Example 70, 2-(4-(2-(5-fluoro-2,2-dimethyl-2,3-dihydrobenzofuran-7-yl)ethyl)phenoxy)acetic acid], the “% Activity (Ex. 25 Reference Compound)” value was determined as 117.72%.
`[2H]C1([2H])c2cc(Cl)cc(COc3ccc(CC(C)C(=O)O)cc3C(F)(F)F)c2OC1(C)C` (stereo not shown) [Example 147, 3-(4-((3,3-dideuterio-5-chloro-2,2-dimethyl-2,3-dihydrobenzofuran-7-yl)methoxy)-3-(trifluoromethyl)phenyl)-2-methylpropanoic acid]: the “% Activity (Ex. 25 Reference Compound)” value came to 138.65%.
Turning to `CC(Cc1ccc(OCc2cc(Cl)cc3c2OC(C)(C)C3=O)c(F)c1)C(=O)O` (stereo not shown) [Example 77, 3-(4-((5-chloro-2,2-dimethyl-3-oxo-2,3-dihydrobenzofuran-7-yl)methoxy)-3-fluorophenyl)-2-methylpropanoic acid], the “% Activity (Ex. 25 Reference Compound)” value is listed as 109.62%.
The same measure, in the same setting: to `Cc1cc2c(OCc3cc(F)cc4c3OC(C)(C)C4)ccc(CCC(=O)O)c2o1` [Example 125, 3-(4-((5-fluoro-2,2-dimethyl-2,3-dihydrobenzofuran-7-yl)methoxy)-2-methylbenzofuran-7-yl)propanoic acid] belongs 32.57%.

Staying with this experiment, now noted: human GPR120 stably expressing cells, eight concentrations from 0.00001 to 20 μM.
By EC50 is commonly meant the concentration at which the effect is half-maximal. With `CC1(C)Cc2cc(Cl)cc(COc3ccc(CCC(=O)O)c(F)c3)c2O1` [Example 53, 3-(4-((5-chloro-2,2-dimethyl-2,3-dihydrobenzofuran-7-yl)methoxy)-2-fluorophenyl)-propanoic acid], the EC50 lay in the range of 1 to 10 µM.
The same measure, in the same setting: as for `COc1cc(OCc2cc(Cl)cc3c2OC(C)(C)C3)ccc1CCC(=O)O` [Example 55, 3-(4-((5-chloro-2,2-dimethyl-2,3-dihydrobenzofuran-7-yl)methoxy)-2-methoxyphenyl)propanoic acid], the figure is 1 to 10 µM.
Consider `COc1cc(CCC(=O)O)c(Br)cc1OCc1cc(F)cc2c1OC(C)(C)C2` [Example 56, 3-(2-bromo-4-((5-fluoro-2,2-dimethyl-2,3-dihydrobenzofuran-7-yl)methoxy)-5-methoxyphenyl)propanoic acid], for which the EC50 was in the range of 1 to 10 µM.
Still for that read-out and setting: to `CC1(C)Cc2cc(F)cc(COc3ccc(CCC(=O)O)c4c3CCC4)c2O1` [Example 63, 3-(7-((5-fluoro-2,2-dimethyl-2,3-dihydrobenzofuran-7-yl)methoxy)-2,3-dihydro-1H-inden-4-yl)propanoic acid] belongs 1 to 10 µM; to `CC1(C)Cc2cc(Cl)cc(COc3ccc(CCC(=O)O)c(Cl)c3)c2O1` [Example 52, 3-(2-chloro-4-((5-chloro-2,2-dimethyl-2,3-dihydrobenzofuran-7-yl)methoxy)phenyl)-propanoic acid], 1 to 10 µM.
For the compound `CC(Cc1cc(F)c(OCc2ccc(C(F)(F)F)c3c2OC(C)(C)C3)c(F)c1)C(=O)O` (stereo not shown) [Example 32, 3-(4-((2,2-dimethyl-4-(trifluoromethyl)-2,3-dihydrobenzofuran-7-yl)methoxy)-3,5-difluorophenyl)-2-methylpropanoic acid], the EC50 lay in the range of 1 to 10 µM.
Take `CC(Cc1ccc(OCc2ccc(F)c3c2CC(C)(C)O3)cc1)C(=O)O` (stereo not shown) [Example 91, 3-(4-((7-fluoro-2,2-dimethyl-2,3-dihydrobenzofuran-4-yl)methoxy)phenyl)-2-methylpropanoic acid]: the EC50 was 1 to 10 µM.
Consider `Cc1cc2c(OCc3cc(F)cc4c3OC(C)(C)C4)ccc(CCC(=O)O)c2o1` [Example 125, 3-(4-((5-fluoro-2,2-dimethyl-2,3-dihydrobenzofuran-7-yl)methoxy)-2-methylbenzofuran-7-yl)propanoic acid], for which the EC50 lay in the range of 1 to 10 µM.

The experiment is the same for the next values; noted with them: typical value, reference compound.
On to “4-[[(3-phenoxyphenyl)methyl]amino]benzene propanoic acid [GW9508, reference compound]”, for which the “concentration at which activity reached a maximum” value was “approximately 6.7 μM”.
